Assay results published in ChEMBL document CHEMBL5653615 (J Biol Chem, 2013).
Values belong to the compound of their own block, whether it stands above or below them.

Tests used:
[1] = molecular target: Casein kinase I isoform gamma-1 (Homo sapiens) (UniProt Q9HCP0); assay: Inhibition of human CK1g1 at 500 nM by HotSpot assay relative to control
[2] = molecular target: RAC-beta serine/threonine-protein kinase (Homo sapiens) (UniProt P31751); assay: Inhibition of human AKT2 at 18.6 nM by HotSpot assay relative to control
RAC-beta serine/threonine-protein kinase (Homo sapiens), sequence (P31751 whole entry): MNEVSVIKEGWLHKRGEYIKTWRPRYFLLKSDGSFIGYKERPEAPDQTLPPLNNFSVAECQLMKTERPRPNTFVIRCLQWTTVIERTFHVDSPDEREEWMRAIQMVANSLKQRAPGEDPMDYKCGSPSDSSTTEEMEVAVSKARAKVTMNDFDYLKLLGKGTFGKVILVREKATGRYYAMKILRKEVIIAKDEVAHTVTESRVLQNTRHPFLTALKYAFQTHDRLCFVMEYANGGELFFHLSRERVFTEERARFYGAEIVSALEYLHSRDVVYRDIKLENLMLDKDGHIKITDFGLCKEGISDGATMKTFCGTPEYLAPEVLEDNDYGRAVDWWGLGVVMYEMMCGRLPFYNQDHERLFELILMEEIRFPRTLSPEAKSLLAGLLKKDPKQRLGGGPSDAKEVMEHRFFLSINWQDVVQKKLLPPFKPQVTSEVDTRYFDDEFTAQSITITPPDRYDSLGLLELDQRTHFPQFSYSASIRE

[3] = molecular target: Receptor tyrosine-protein kinase erbB-4 (Homo sapiens) (UniProt Q15303); assay: Inhibition of human ERBB4 at 18.6 nM by HotSpot assay relative to control
Receptor tyrosine-protein kinase erbB-4 (Homo sapiens), sequence (Q15303 whole entry): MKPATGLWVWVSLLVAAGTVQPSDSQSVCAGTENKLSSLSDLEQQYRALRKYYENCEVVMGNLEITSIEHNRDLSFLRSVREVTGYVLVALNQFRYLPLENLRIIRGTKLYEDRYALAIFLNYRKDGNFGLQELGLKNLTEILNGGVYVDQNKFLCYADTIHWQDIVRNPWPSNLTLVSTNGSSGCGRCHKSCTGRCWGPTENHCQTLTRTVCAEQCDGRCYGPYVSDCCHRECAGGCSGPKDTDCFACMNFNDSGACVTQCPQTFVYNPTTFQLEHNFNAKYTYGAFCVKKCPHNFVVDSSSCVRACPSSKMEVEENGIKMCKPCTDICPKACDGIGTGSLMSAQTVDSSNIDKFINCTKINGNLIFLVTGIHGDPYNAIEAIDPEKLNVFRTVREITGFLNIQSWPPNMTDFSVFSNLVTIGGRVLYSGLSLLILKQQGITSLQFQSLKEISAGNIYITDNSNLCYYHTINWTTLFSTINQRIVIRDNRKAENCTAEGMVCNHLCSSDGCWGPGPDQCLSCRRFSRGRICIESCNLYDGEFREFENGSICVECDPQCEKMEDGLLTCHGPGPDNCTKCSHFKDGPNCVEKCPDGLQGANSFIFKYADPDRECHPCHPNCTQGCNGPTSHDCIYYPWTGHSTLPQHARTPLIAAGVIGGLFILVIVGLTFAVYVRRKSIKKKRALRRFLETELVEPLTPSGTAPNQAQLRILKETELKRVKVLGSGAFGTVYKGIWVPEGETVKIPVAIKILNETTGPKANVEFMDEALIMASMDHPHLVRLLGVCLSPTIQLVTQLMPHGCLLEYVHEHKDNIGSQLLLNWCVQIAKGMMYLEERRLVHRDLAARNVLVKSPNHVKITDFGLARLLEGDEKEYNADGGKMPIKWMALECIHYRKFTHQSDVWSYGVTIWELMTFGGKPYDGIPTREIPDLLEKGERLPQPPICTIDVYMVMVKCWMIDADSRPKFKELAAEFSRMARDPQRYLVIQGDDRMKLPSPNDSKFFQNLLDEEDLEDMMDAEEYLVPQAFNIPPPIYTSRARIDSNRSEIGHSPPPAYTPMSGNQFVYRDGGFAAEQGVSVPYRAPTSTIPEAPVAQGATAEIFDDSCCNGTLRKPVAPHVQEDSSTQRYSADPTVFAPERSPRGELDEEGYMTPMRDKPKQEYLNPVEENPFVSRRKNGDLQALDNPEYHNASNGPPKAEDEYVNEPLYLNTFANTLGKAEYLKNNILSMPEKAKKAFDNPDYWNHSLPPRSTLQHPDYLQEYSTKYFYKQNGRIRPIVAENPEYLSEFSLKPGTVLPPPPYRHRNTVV

[4] = molecular target: RAC-gamma serine/threonine-protein kinase (Homo sapiens) (UniProt Q9Y243); assay: Inhibition of human AKT3 at 18.6 nM by HotSpot assay relative to control
RAC-gamma serine/threonine-protein kinase (Homo sapiens), sequence (Q9Y243 whole entry): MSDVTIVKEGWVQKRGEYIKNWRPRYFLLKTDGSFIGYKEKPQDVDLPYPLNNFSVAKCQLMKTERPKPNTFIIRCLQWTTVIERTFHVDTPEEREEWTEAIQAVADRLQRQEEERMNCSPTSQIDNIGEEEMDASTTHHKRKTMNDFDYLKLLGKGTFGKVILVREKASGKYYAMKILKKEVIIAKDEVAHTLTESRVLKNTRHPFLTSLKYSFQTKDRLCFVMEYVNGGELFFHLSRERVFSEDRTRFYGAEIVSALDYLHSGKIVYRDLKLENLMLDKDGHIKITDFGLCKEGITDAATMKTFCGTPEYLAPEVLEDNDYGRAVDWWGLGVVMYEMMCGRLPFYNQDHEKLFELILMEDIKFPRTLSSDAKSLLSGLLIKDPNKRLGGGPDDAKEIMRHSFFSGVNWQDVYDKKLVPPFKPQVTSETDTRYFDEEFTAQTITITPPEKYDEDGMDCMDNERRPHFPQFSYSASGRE

[5] = molecular target: T1, Tyrosine-protein kinase Mer (Homo sapiens) (UniProt Q12866); assay: Inhibition of human c-MER at 18.6 nM by HotSpot assay relative to control
T1 sequence (whole entry): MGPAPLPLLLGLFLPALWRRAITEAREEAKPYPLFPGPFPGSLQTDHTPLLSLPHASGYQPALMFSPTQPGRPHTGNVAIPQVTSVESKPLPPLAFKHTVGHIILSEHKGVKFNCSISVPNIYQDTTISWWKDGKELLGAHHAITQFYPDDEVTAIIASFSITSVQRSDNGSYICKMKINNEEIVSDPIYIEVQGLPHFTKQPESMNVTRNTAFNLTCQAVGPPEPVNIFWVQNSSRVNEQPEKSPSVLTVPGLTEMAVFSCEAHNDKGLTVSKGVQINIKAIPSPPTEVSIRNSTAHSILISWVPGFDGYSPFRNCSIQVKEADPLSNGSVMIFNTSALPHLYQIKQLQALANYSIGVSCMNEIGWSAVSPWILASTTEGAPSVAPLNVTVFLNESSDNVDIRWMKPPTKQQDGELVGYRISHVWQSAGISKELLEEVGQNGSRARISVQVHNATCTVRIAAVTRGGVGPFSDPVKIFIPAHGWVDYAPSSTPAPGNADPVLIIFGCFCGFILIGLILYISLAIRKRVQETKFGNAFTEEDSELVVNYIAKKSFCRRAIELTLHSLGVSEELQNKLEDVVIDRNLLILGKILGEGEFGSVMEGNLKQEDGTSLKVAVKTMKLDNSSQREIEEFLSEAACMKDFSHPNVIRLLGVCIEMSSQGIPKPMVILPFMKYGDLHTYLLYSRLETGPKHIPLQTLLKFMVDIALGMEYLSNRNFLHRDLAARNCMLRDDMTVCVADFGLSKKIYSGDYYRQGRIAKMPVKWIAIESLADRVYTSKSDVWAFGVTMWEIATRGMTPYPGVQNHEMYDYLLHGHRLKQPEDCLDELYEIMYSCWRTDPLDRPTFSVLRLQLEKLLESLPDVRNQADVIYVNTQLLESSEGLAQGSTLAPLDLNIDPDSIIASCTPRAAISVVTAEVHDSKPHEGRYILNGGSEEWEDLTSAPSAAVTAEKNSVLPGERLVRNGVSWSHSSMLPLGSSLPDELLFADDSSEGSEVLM

[6] = molecular target: T2, Beta-adrenergic receptor kinase 1 (Homo sapiens) (UniProt P25098); assay: Inhibition of human GRK2 at 18.6 nM by HotSpot assay relative to control
T2 sequence (whole entry): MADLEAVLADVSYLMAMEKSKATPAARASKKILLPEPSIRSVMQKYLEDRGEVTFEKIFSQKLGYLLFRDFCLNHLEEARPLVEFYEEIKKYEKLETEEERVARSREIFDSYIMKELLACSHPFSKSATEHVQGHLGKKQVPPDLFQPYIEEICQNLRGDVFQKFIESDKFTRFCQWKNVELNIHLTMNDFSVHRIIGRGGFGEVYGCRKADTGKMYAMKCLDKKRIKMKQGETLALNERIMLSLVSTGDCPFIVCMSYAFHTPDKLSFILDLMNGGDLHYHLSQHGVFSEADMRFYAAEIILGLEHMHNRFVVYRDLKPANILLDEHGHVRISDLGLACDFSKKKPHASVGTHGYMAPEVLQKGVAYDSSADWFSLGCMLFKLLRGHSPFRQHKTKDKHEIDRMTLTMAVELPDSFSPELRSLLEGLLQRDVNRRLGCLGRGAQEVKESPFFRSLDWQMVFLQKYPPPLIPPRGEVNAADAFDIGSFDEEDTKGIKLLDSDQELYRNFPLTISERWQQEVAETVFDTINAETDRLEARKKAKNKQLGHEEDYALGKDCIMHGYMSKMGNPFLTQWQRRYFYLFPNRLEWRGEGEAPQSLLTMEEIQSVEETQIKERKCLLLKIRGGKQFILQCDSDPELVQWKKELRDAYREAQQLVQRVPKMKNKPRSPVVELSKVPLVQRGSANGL

[7] = molecular target: CDK6/cyclin D1 (Homo sapiens) (UniProt P24385+Q00534); assay: Inhibition of human CDK6/cyclin D1 at 18.6 nM by HotSpot assay relative to control; assay type: protein-complex assay
[8] = molecular target: G protein-coupled receptor kinase 4 (Homo sapiens) (UniProt P32298); assay: Inhibition of human GRK4 at 18.6 nM by HotSpot assay relative to control
G protein-coupled receptor kinase 4 (Homo sapiens), sequence (P32298 whole entry, looked up): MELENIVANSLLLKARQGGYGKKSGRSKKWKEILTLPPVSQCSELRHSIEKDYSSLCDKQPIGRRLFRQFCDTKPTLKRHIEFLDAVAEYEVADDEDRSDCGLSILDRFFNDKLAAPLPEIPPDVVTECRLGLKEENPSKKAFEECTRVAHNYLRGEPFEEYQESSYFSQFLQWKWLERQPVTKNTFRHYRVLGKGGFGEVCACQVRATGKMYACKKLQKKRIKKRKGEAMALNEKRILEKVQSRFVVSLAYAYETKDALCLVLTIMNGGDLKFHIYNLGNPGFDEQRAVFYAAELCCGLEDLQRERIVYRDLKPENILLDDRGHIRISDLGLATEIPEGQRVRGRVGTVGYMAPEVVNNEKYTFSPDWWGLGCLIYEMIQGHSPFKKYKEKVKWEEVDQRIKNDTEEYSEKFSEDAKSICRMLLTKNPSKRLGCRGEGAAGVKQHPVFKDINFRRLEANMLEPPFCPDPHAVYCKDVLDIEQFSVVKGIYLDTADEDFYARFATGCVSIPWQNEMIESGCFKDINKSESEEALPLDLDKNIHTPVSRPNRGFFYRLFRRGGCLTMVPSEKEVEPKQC

[9] = molecular target: Serine/threonine-protein kinase PAK 4 (Homo sapiens) (UniProt O96013); assay: Inhibition of human PAK4 at 1.82 nM by HotSpot assay relative to control
Serine/threonine-protein kinase PAK 4 (Homo sapiens), sequence (O96013 whole entry, looked up): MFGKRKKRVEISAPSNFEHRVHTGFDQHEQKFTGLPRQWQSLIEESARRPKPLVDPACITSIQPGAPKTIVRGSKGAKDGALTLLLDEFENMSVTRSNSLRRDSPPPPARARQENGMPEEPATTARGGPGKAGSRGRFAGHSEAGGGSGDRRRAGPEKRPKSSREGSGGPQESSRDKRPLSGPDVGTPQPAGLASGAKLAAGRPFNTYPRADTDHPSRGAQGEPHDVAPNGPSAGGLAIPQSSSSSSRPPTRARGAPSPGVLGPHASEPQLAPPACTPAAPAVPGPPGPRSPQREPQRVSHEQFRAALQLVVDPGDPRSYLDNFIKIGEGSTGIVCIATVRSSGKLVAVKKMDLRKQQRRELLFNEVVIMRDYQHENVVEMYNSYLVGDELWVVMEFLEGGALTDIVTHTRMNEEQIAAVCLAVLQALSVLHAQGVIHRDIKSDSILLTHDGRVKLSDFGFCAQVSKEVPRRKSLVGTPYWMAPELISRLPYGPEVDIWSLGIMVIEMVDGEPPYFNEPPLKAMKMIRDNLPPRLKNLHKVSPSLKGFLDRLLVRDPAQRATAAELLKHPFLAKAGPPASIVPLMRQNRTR

[10] = molecular target: Homeodomain-interacting protein kinase 1 (Homo sapiens) (UniProt Q86Z02); assay: Inhibition of human HIPK1 at 1.82 nM by HotSpot assay relative to control
Homeodomain-interacting protein kinase 1 (Homo sapiens), sequence (Q86Z02 whole entry, looked up): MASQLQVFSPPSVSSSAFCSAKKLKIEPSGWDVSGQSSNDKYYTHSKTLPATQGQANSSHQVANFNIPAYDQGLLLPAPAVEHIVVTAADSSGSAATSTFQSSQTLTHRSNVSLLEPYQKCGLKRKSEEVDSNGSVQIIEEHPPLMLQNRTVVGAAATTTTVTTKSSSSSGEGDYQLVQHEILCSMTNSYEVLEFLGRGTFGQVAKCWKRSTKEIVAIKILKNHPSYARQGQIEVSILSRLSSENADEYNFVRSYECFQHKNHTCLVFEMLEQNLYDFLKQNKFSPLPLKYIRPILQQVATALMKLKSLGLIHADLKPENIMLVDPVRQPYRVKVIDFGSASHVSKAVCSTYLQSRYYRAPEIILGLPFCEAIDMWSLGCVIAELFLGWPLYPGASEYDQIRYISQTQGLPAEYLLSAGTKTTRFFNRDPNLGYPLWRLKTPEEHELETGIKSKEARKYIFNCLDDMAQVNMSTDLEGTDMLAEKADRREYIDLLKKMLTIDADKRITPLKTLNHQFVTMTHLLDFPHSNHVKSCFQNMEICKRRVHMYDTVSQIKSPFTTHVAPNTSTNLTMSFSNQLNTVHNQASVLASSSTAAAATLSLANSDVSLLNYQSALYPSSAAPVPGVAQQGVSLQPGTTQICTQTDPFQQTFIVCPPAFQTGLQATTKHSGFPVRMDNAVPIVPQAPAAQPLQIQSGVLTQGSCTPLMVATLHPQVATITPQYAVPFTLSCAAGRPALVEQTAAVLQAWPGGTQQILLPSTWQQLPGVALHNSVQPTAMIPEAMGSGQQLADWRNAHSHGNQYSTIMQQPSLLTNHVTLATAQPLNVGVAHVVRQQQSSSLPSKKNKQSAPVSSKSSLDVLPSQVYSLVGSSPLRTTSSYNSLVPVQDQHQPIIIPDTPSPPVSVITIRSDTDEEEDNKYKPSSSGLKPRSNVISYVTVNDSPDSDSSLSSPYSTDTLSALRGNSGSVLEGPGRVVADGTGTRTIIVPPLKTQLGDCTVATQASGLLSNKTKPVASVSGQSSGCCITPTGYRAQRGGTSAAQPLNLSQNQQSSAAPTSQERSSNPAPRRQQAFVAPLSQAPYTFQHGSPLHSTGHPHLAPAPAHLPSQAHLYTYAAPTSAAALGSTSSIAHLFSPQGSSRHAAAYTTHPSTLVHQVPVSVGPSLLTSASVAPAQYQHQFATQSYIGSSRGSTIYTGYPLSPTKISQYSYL

[11] = molecular target: CDK9/Cyclin K (Homo sapiens) (UniProt P50750+O75909); assay: Inhibition of human CDK9/cyclin K at 1.82 nM by HotSpot assay relative to control; assay type: protein-complex assay
[12] = molecular target: CDK4/Cyclin D3 (Homo sapiens) (UniProt P11802+P30281); assay: Inhibition of human CDK4/cyclin D3 at 1.82 nM by HotSpot assay relative to control; assay type: protein-complex assay

Casein kinase I isoform gamma-1 (Homo sapiens), sequence (Q9HCP0 whole entry, looked up, canonical isoform): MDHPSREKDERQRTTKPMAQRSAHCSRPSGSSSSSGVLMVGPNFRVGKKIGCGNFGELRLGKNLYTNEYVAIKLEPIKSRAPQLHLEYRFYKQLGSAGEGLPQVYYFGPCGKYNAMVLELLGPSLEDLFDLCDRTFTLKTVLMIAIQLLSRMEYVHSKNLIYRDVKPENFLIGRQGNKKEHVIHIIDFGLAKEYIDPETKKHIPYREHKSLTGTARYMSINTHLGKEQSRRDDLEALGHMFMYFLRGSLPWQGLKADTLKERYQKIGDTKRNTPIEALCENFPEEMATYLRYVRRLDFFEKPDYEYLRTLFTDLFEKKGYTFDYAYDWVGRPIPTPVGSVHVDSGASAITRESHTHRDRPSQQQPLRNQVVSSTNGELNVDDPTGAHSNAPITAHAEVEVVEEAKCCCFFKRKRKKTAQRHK

SMILES: Nc1n[nH]c2nnc(-c3c(-c4ccccc4)nn4ccccc34)cc12
- inhibition [1]: -3.88%

- inhibition [2]: 0.3%
- inhibition [3]: 2.92%
- inhibition [4]: -1.08%
- inhibition [5]: -0.54%
- inhibition [6]: -1%
- inhibition [7]: 0.62%
- inhibition [8]: 5.49%
SMILES: C[C@]1(O)C[C@@H](c2nc(-c3ccc4ccc(-c5ccccc5)nc4c3)c3c(N)nccn32)C1

- inhibition [9]: -3.15%
- inhibition [10]: -6.64%
- inhibition [11]: 4.72%
- inhibition [12]: -0.76%
SMILES: C[C@@]1(C(=O)Nc2ccc(F)nc2)CCCN1c1nc(Nc2cc(C3CC3)n[nH]2)c2cccn2n1
